Assays:
morningglory [1] = test: Test C pre-/postemergence herbicide test; format: in vivo, Ipomoea coccinea; set-up: key to Plant response rating, Morningglory: 0 = no effect, 100 = complete control; settings: preemergence
Text: (§1) Seeds of plant species selected from bermudagrass (Cynodon dactylon (L.) Pers.), Surinam grass (Urochloa decumbens (Staph) R. D. Webster, previously named Brachiaria decumbens Stapf), cocklebur (Xanthium strumarium L.), corn (Zea mays L.), large crabgrass (Digitaria sanguinalis (L.) Scop.), woolly cupgrass (Eriochloa villosa (Thunb.) Kunth), giant foxtail (Setaria faberi Herrm.), goosegrass (Eleusine indica (L.) Gaertn.), johnsongrass (Sorghum halepense (L.) Pers.), kochia (Kochia scoparia (L.) Schrad.), lambsquarters (Chenopodium album L.), morningglory (Ipomoea coccinea L.), eastern black nightshade (Solanum ptycanthum Dunal), yellow nutsedge (Cyperus esculentus L.), pigweed (Amaranthus retroflexus L.), common ragweed (Ambrosia elatior L.), soybean (Glycine max (L.) Merr.), common (oilseed) sunflower (Helianthus annuus L.) and velvetleaf (Abutilon theophrasti Medik.) were planted and treated preemergence with test chemicals formulated in a non-phytotoxic solvent mixture which included a surfactant.
(§2) At the same time, plants selected from these crop and weed species and also winter barley (Hordeum vulgare L.), blackgrass (Alopecurus myosuroides Huds.), canarygrass (Phalaris minor Retz.), chickweed (Stellaria media (L.) Vill.), downy bromegrass (Bromus tectorum L.), green foxtail (Setaria viridis (L.) Beauv.), Italian ryegrass (Lolium multiflorum Lam.), wheat (Triticum aestivum L.), wild oat (Avenafatua L.) and windgrass (Apera spica-venti (L.) Beauv.) were treated with postemergence applications of some of the test chemicals formulated in the same manner. Plants ranged in height from 2 to 18 cm (1- to 4-leaf stage) for postemergence treatments. Plant species in the flooded paddy test consisted of rice (Oryza sativa), smallflower umbrella sedge (Cyperus difformis L.), ducksalad (Heteranthera limosa (Sw.) Willd.) and barnyardgrass (Echinochloa crus-galli (L.) Beauv.) grown to the 2-leaf stage for testing. Treated plants and controls were maintained in a greenhouse for 12 to 14 days, after which time all species were compared to controls and visually evaluated. Plant response ratings, summarized in Table C, are based on a scale of 0 to 100 where 0 is no effect and 100 is complete control. A dash (-) response means no test result.

bermudagrass = test: Test C pre-/postemergence herbicide test; format: in vivo, Cynodon dactylon; settings: preemergence
Text: as §1, §2

barnyardgrass = test: Test B flooded paddy test; format: in vivo, Echinochloa crus-galli; settings: 1000 g ai/ha, scale 0 to 100 (0 no effect, 100 complete control)
Outline: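 Plants grow to 1- to 4-leaf stage (2–18 cm) for postemergence spraying, or to 2-leaf stage for the paddy test. Formulated compound is applied. Greenhouse holding lasts 13–15 days. Response is scored visually relative to controls, 0 no effect to 100 complete control; a dash means no result.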

morningglory [2] = test: Test B pre-/postemergence herbicide test; format: in vivo, Ipomoea coccinea; settings: for Plant response rating (0 to 100 scale), Morningglory / Plant response rating, Morningglory: 0 is no effect, 100 is complete control, preemergence; for Plant response rating, Morningglory: 0 to 100 scale
Outline: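 Species tested were Echinochloa crus-galli, Ipomoea coccinea, Xanthium strumarium and Oryza sativa, treated both before emergence and at the 1- to 4-leaf stage; rice and barnyardgrass were also tested under flooding at 2 leaves. Greenhouse incubation lasted 13–15 days before visual 0–100 scoring.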

velvetleaf = test: Test A pre-/postemergence herbicide test; format: in vivo, Abutilon theophrasti
Outline: (§3)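 Visual injury scores on a 0–100 scale (100 = complete control) taken about ten days post-treatment in greenhouse against untreated controls; dash means no result. Treatments: preemergence soil spray and postemergence spray to runoff on one- to two-leaf plants 2 to 10 cm tall, surfactant-containing formulation.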

large crabgrass = test: Test A pre-/postemergence herbicide test; format: in vivo, Digitaria sanguinalis
Outline: as §3

[3] = tested on: smallflower umbrella sedge; test: Test C flooded paddy test; format: in vivo, Cyperus difformis
[4] = 500 g ai/ha, scale 0 to 100 (0 no effect, 100 complete control), visual, 12 to 14 days
[5] = 62 g ai/ha, scale 0 to 100, 0 no effect, 100 complete control
[6] = Postemergence, 500 g ai/ha, scale 0 (no effect) to 100 (complete control)
[7] = postemergence, 125 g ai/ha, scale 0 to 100
[8] = 125 g ai/ha, scale 0 (no effect) to 100 (complete control), visual, 12 to 14 days
[9] = 250 g ai/ha, scale 0 to 100 (0 no effect, 100 complete control), visual, 12 to 14 days
[10] = Postemergence, 500 g ai/ha, 0 to 100 scale, 0 no effect, 100 complete control
[11] = Postemergence, 2000 g ai/ha, 0 to 100 scale, 0 no effect, 100 complete control
[12] = Preemergence, 500 g ai/ha, visual rating, 0 to 100 scale (0 no effect, 100 complete control)
[13] = Preemergence, 2000 g ai/ha, 0 to 100 scale, 0 no effect, 100 complete control
[14] = Preemergence, 2000 g ai/ha, visual rating, 0 to 100 scale (0 no effect, 100 complete control)
[15] = preemergence, 500 g ai/ha, visual injury, 0 to 100 scale (0 no effect, 100 complete control)

Structure (SMILES)	Plant response rating, Morningglory (morningglory [1]; 62 g ai/ha, scale 0 to 100)	Plant response rating (0 = no effect, 100 = complete control), Morningglory (morningglory [1]; 125 g ai/ha)	Plant response rating, Morningglory (morningglory [1]; [4])	Plant response rating, Bermudagrass (bermudagrass; [5])	Plant response rating (0 = no effect, 100 = complete control), Bermudagrass (bermudagrass; 125 g ai/ha)	Plant response rating, Bermudagrass (bermudagrass; 250 g ai/ha, scale 0-100)	Plant response rating, Bermudagrass (bermudagrass; [4])	Barnyardgrass plant response rating (barnyardgrass)	Plant response rating (0 to 100 scale), Morningglory (morningglory [2]; 125 g ai/ha)	Morningglory plant response rating (morningglory [2]; [6])	Morningglory plant response rating (morningglory [2]; [7])	Plant response rating, Velvetleaf (velvetleaf; [11])	Velvetleaf plant response rating (velvetleaf; [12])	Plant response rating, Crabgrass, Large (large crabgrass; [10])	Plant response rating, Crabgrass, Large (large crabgrass; [11])	Crabgrass, Large plant response rating (large crabgrass; [12])	Crabgrass, Large plant response rating (large crabgrass; [13])	Barnyardgrass plant response rating (barnyardgrass; visual rating, 13 to 15 days)	Plant response rating, Morningglory (morningglory [2]; 125 g ai/ha)	Velvetleaf plant response rating (velvetleaf; [14])	other results
CCN(CC)C(=O)c1cccc(NC(=O)c2nn(C(C)(C)C)nc2C)c1 [Compound 418]	20	70	100	100	100	100	100	80	40	80	80	–	–	–	–	–	–	–	–	–	–
CCCCn1nc(C(C)(C)C)cc1C(=O)Nc1cccc(C(=O)NCC)c1 [Compound 41]	–	–	–	–	–	–	–	–	–	–	–	25	25	20	60	40	80	50	0	–	Plant response rating, Morningglory (morningglory [1]; 31 g ai/ha, scale 0 to 100): 0; Plant response rating (0 = no effect, 100 = complete control), Morningglory (morningglory [1]; 62 g ai/ha): 0; Plant response rating, Morningglory (morningglory [1]; [8]): 0; Plant response rating, Morningglory (morningglory [1]; [9]): 20; Plant response rating, Velvetleaf (velvetleaf; [10]): 25; Velvetleaf plant response rating (velvetleaf; [13]): 40; Plant response rating, Bermudagrass (bermudagrass; 31 g ai/ha, scale 0 to 100): 30; Plant response rating (0 = no effect, 100 = complete control), Bermudagrass (bermudagrass; 62 g ai/ha): 30; Plant response rating, Bermudagrass (bermudagrass; [8]): 50; Plant response rating, Bermudagrass (bermudagrass; [9]): 100; Morningglory plant response rating (morningglory [2]; Preemergence, 500 g ai/ha, scale 0 to 100): 10
CCOC(=O)c1cccc(NC(=O)c2cc(C(C)(C)C)nn2CCF)c1 [Compound 79]	–	–	–	–	–	–	–	–	–	–	–	50	20	20	55	50	55	60	0	70	Sedge, Umbrella plant response rating ([3]; 62 g ai/ha, scale 0 to 100 (0 no effect, 100 complete control)): 75; Sedge, Umbrella plant response rating ([3]; 125 g ai/ha, scale of 0 to 100, 0 is no effect, 100 is complete control): 75; Sedge, Umbrella plant response rating ([3]; 250 g ai/ha, scale of 0 to 100, 0 is no effect, 100 is complete control): 80; Plant response rating, Sedge, Umbrella ([3]; 500 g ai/ha, visual rating after 12 to 14 days, scale 0 to 100 (0 no effect, 100 complete control)): 85
CCc1nn(C(C)(C)C)nc1C(=O)Nc1cccc(C(=O)NC2CC2)c1 [Compound 417]	0	20	95	100	100	100	100	70	0	60	50	90	–	–	85	–	–	–	–	70	Velvetleaf plant response rating (velvetleaf; [10]): 60; Velvetleaf plant response rating (velvetleaf; [15]): 55; Crabgrass, Large plant response rating (large crabgrass; [10]): 30; Crabgrass, Large plant response rating (large crabgrass; [14]): 95; Crabgrass, Large plant response rating (large crabgrass; [15]): 75
